Data as given in ChEMBL document CHEMBL5584321, “Chemoenzymatic Synthesis of DNP-Functionalized FGFR1-Binding Peptides as Novel Peptidomimetic Immunotherapeutics for Treating Lung Cancer” (J Med Chem, 2024).
Activity calls are given as the source filed them. No cut-off for these calls is given here. Where a SMILES comes first, the peptide text is derived from it. The star is where a group is joined. X1 = O=[N+]([O-])c1ccc(OCCOCCOCCOCCOCCOCCN*)c([N+](=O)[O-])c1

Assays:
[1] = system: L6; experiment: Binding affinity to FGFR1c in rat L6 cells assessed as increase in green fluorescence signal incubated for 1 hr by Alexa-488 staining based confocal fluorescence microscopic analysis; format: cell-based
[2] = Toxicity in BALB/c mouse xenografted with human NCI-H1581 cells assessed as inflammation in spleen at 20 mg/kg,SC administrated once daily for 12 days by hematoxylin and eosin staining based analysis; format: organism-based; details: in vivo, 288 h, time 12 day
[3] = Renal toxicity in BALB/c mouse xenografted with human NCI-H1581 cells assessed as change in creatinine level at 20 mg/kg,SC administrated once daily for 12 days; format: organism-based; details: in vivo, 288 h, time 12 day
[4] = system: NCI-H1581; experiment: Binding affinity to FGFR1c in human NCI-H1581 cells assessed as fold change in fluorescence intensity at 10 uM by antibody recruiting based flow cytometry relative to Pep1; format: cell-based
[5] = system: L6; experiment: Binding affinity to human full-length wild type FGFR1c stably expressed in rat L6 cells assessed as fold change in fluorescence intensity at 10 uM by antibody recruiting based flow cytometry relative to Pep1; format: cell-based
[6] = Toxicity in BALB/c mouse xenografted with human NCI-H1581 cells assessed as change in lung weight at 20 mg/kg,SC administrated once daily for 12 days; format: organism-based; details: in vivo, 288 h, time 12 day
[7] = Toxicity in BALB/c mouse xenografted with human NCI-H1581 cells assessed as change in body weight at 20 mg/kg,SC administrated once daily for 12 days; format: organism-based; details: in vivo, 288 h, time 12 day
[8] = Toxicity in BALB/c mouse xenografted with human NCI-H1581 cells assessed as inflammation in liver at 20 mg/kg,SC administrated once daily for 12 days by hematoxylin and eosin staining based analysis; format: organism-based; details: in vivo, 288 h, time 12 day
[9] = Toxicity in BALB/c mouse xenografted with human NCI-H1581 cells assessed as cell necrosis in heart at 20 mg/kg,SC administrated once daily for 12 days by hematoxylin and eosin staining based analysis; format: organism-based; details: in vivo, 288 h, time 12 day
[10] = Toxicity in BALB/c mouse xenografted with human NCI-H1581 cells assessed as cell necrosis in lung at 20 mg/kg,SC administrated once daily for 12 days by hematoxylin and eosin staining based analysis; format: organism-based; details: in vivo, 288 h, time 12 day
[11] = system: L6; experiment: Antiproliferative activity against FGF2-induced rat L6 cells stably expressing human full-length FGFR1c assessed as inhibition of cell growth incubated for 36 hrs by CCK-8 assay; format: functional, cell-based
[12] = Toxicity in BALB/c mouse xenografted with human NCI-H1581 cells assessed as change in kidney weight at 20 mg/kg,SC administrated once daily for 12 days; format: organism-based; details: in vivo, 288 h, time 12 day
[13] = system: NCI-H1581; experiment: Antitumor activity against human NCI-H1581 cells xenografted BALB/c mouse model assessed as tumor necrosis at 20 mg/kg,SC administrated once daily for 12 days by hematoxylin and eosin staining based analysis; format: functional, organism-based; details: time 12.0 day
[14] = system: NCI-H1581; experiment: Binding affinity to FGFR1c in human NCI-H1581 cells assessed as increase in fluorescence signal by antibody recruiting based flow cytometry; format: cell-based
[15] = system: NCI-H1581; experiment: Binding affinity to FGFR1c in human NCI-H1581 cells assessed as increase in green fluorescence signal incubated for 1 hr by Alexa-488 staining based confocal fluorescence microscopic analysis; format: cell-based
[16] = AUC in immunized Sprague-Dawley rat at 1.5 mg/kg,SC administration measured upto 24 hrs by fluorescence based microplate reader assay; format: ADME, organism-based; details: in vivo
[17] = Binding affinity to CM5 sensor chip immobilized human full-length wild type FGFR1c assessed as dissociation constant by SPR analysis
[18] = Hepatotoxicity in BALB/c mouse xenografted with human NCI-H1581 cells assessed as change in ALT level at 20 mg/kg,SC administrated once daily for 12 days; format: toxicity, organism-based; details: in vivo, 288 h, time 12 day
[19] = Toxicity in BALB/c mouse xenografted with human NCI-H1581 cells assessed as cell necrosis in kidney at 20 mg/kg,SC administrated once daily for 12 days by hematoxylin and eosin staining based analysis; format: organism-based; details: in vivo, 288 h, time 12 day
[20] = system: L6; experiment: Induction of apoptosis in FGF2-induced rat L6 cells stably expressing human full-length FGFR1c assessed as upregulation of cleaved caspase-3 expression at 50 uM incubated for 24 hrs by Western blotting analysis; format: functional, cell-based
[21] = system: L6; experiment: Induction of cell lysis in rat L6 cells stably expressing human full-length FGFR1c at 1 uM incubated for 1 hr by complement dependent cytotoxicity based CCK-8 assay relative to control; format: functional
[22] = Renal toxicity in BALB/c mouse xenografted with human NCI-H1581 cells assessed as change in urea level at 20 mg/kg,SC administrated once daily for 12 days; format: organism-based; details: in vivo, 288 h, time 12 day
[23] = Cmax in immunized Sprague-Dawley rat at 1.5 mg/kg,SC administration measured upto 24 hrs by fluorescence based microplate reader assay; format: ADME, organism-based; details: in vivo
[24] = system: L6; experiment: Antiproliferative activity against FGF2-induced rat L6 cells stably expressing human full-length FGFR1c assessed as inhibition of cell growth at 100 uM incubated for 36 hrs by CCK-8 assay relative to control; format: functional
[25] = Toxicity in BALB/c mouse xenografted with human NCI-H1581 cells assessed as cell necrosis in liver at 20 mg/kg,SC administrated once daily for 12 days by hematoxylin and eosin staining based analysis; format: organism-based; details: in vivo, 288 h, time 12 day
[26] = system: NCI-H1581; experiment: Antitumor activity against human NCI-H1581 cells xenografted BALB/c mouse model assessed as induction of apoptosis by measuring increase in TUNEL positive cells at 20 mg/kg,SC administrated once daily for 12 days; format: functional, organism-based; details: time 12.0 day
[27] = system: L6; experiment: Induction of apoptosis in FGF2-induced rat L6 cells stably expressing human full-length FGFR1c assessed as upregulation of cleaved PARP expression at 50 uM incubated for 24 hrs by Western blotting analysis; format: functional, cell-based
[28] = system: NCI-H1581; experiment: Binding affinity to FGFR1c in human NCI-H1581 cells assessed as fluorescence intensity at 10 uM by antibody recruiting based flow cytometry; format: cell-based
[29] = Hepatotoxicity in BALB/c mouse xenografted with human NCI-H1581 cells assessed as change in AST level at 20 mg/kg,SC administrated once daily for 12 days; format: toxicity, organism-based; details: in vivo, 288 h, time 12 day
[30] = Toxicity in BALB/c mouse xenografted with human NCI-H1581 cells assessed as change in heart weight at 20 mg/kg,SC administrated once daily for 12 days; format: organism-based; details: in vivo, 288 h, time 12 day
[31] = Tmax in immunized Sprague-Dawley rat at 1.5 mg/kg,SC administration measured upto 24 hrs by fluorescence based microplate reader assay; format: ADME, organism-based; details: in vivo
[32] = Toxicity in BALB/c mouse xenografted with human NCI-H1581 cells assessed as inflammation in lung at 20 mg/kg,SC administrated once daily for 12 days by hematoxylin and eosin staining based analysis; format: organism-based; details: in vivo, 288 h, time 12 day
[33] = Toxicity in BALB/c mouse xenografted with human NCI-H1581 cells assessed as change in liver weight at 20 mg/kg,SC administrated once daily for 12 days; format: organism-based; details: in vivo, 288 h, time 12 day
[34] = system: L6; experiment: Binding affinity to human full-length wild type FGFR1c stably expressed in rat L6 cells assessed as increase in fluorescence signal by antibody recruiting based flow cytometry; format: cell-based
[35] = Toxicity in BALB/c mouse xenografted with human NCI-H1581 cells assessed as inflammation in heart at 20 mg/kg,SC administrated once daily for 12 days by hematoxylin and eosin staining based analysis; format: organism-based; details: in vivo, 288 h, time 12 day
[36] = Toxicity in BALB/c mouse xenografted with human NCI-H1581 cells assessed as cell necrosis in spleen at 20 mg/kg,SC administrated once daily for 12 days by hematoxylin and eosin staining based analysis; format: organism-based; details: in vivo, 288 h, time 12 day

## CC(C)C[C@H](NC(=O)[C@H](C)NC(=O)[C@@H](NC(=O)[C@H](Cc1ccc(O)cc1)NC(=O)[C@H](Cc1c[nH]c2ccccc12)NC(=O)[C@H](CO)NC(=O)[C@H](CO)NC(=O)[C@H](Cc1ccc(O)cc1)NC(=O)[C@H](CCCCN)NC(=O)[C@H](CCCNC(=N)N)NC(=O)[C@H](CO)NC(=O)[C@H](CCCNC(=N)N)NC(=O)[C@@H](N)Cc1ccc(O)cc1)C(C)C)C(=O)N[C@@H](CCCCN)C(=O)N[C@@H](CCCNC(=N)N)C(=O)N[C@@H](CC(C)C)C(=O)N1CCC[C@H]1C(=O)N[C@@H](CCC(=O)O)C(=O)N[C@H](C(=O)NCC(=O)NCC(=O)NCC(=O)NCCOCCOCCOCCOCCOCCOc1ccc([N+](=O)[O-])cc1[N+](=O)[O-])[C@@H](C)O (H-YRSRKYSSWYVALKRLPETGGG-X1)
[1]
  Activity: inactive
[2]
  Activity: Non-Toxic
[3]
  Activity: Non-Toxic
[4]
  fold change (FC): 36
[5]
  fold change (FC): 200
[6]
  Activity: Non-Toxic
[7]
  Activity: Non-Toxic
[8]
  Activity: Non-Toxic
[9]
  Activity: Non-Toxic
[10]
  Activity: Non-Toxic
[11]
  Activity: Dose-Dependent Effect
[12]
  Activity: Non-Toxic
[13]
  Activity: Active
[14]
  Activity: Dose-Dependent Effect
[15]
  Activity: Active
[16]
  AUC at 24 h: 2600 ng·h/mL
[17]
  Kd: 5.01 µM
[18]
  Activity: Non-Toxic
[19]
  Activity: Non-Toxic
[20]
  Activity: Active
[21]
  Activity: 45.8%
[22]
  Activity: Non-Toxic
[23]
  Cmax: 273 ng/mL
[24]
  inhibition at 100 µM: 100%
[25]
  Activity: Non-Toxic
[26]
  Activity: Active
[27]
  Activity: Active
[28]
  Flu intensity: 5.7 10^3No_unit
[29]
  Activity: Non-Toxic
[30]
  Activity: Non-Toxic
[31]
  Tmax: 1.67 h
[32]
  Activity: Non-Toxic
[33]
  Activity: Non-Toxic
[34]
  Activity: Dose-Dependent Effect
[35]
  Activity: Non-Toxic
[36]
  Activity: Non-Toxic
